molecular target: T1, human recombinant USP30 (Homo sapiens, UniProt Q70CQ3); experiment: Ubiquitin-Rhodamine 110 Assay for USP30 Activity (USP30 biochemical assay); conditions: IC50 ranges; 0.4 nM enzyme, 25 nM Ub-Rh110, 30 min preincubation, test concentration 25 μM to 1.3 nM
T1 construct: purchased Boston Biochem E-582
T1 sequence (Q70CQ3 1-517): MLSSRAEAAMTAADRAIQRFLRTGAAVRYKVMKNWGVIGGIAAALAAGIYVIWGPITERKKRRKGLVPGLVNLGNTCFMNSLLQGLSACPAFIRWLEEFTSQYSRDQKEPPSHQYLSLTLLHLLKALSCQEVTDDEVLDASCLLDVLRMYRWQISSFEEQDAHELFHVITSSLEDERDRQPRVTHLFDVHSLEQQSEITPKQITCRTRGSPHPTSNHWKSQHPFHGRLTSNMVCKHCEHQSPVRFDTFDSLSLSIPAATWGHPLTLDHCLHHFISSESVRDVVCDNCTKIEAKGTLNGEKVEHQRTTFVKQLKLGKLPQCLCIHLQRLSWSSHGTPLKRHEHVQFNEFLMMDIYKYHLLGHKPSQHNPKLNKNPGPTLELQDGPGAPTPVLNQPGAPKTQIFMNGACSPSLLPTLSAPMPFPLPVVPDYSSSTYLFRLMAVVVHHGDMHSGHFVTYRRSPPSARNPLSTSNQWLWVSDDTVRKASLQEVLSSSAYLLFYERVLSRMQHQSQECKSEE
Procedure: Assay Example A: Description of Biochemical Assay: Ubiquitin-Rhodamine 110 Assay for USP30 Activity
The assay was performed in a final volume of 6 μL in assay buffer containing 20 mM Tris-HCl (pH 8.0, (1M Tris-HCl, pH 8.0 solution; Corning 46-031-CM)), 1 mM GSH (L-glutathione reduced, Sigma-Aldrich, G4251-100G), 0.03% BGG ([…], Sigma, G7516-25G), and 0.01% Triton X-100 (Sigma, T9284-10L). Nanoliter quantities of 10-point, 3-fold serial dilution in DMSO were pre-dispensed into 1536 assay plates (Corning, #3724BC) for a final test concentration of 25 μM to 1.3 nM, top to lowest dose, respectively. Concentration and incubation times were optimized for the maximal signal-to-background while maintaining initial velocity conditions at a fixed substrate concentration (<<Km). The final concentration of enzyme (human recombinant USP30, Boston Biochem, cat. #E-582) in the assay was 0.4 nM. Final substrate (Ub-R^h110; Ubiquitin-Rhodamine 110, UbiQ-126) concentration was 25 nM. 3 μL of 2× enzyme was added to assay plates (pre-stamped with compound), preincubated for 30 minutes and then treated with 3 μL of 2× substrate. Plates were read for fluorescence on the Envision (Perkin Elmer) or PheraSTAR (BMG) (excitation at 485 nm and emission at 535 nm) 5 times over the course of 11 minutes and the slope of this kinetic read used to normalize the raw data.
For all assay formats, data were reported as percent inhibition compared with control wells based on the following equation: % inh=1−((FLU−AveLow)/(AveHigh−AveLow)) where FLU=measured Fluorescence, AveLow=average Fluorescence of no enzyme control (n=32), and AveHigh=average Fluorescence of DMSO control (n=32). IC50 values were determined by curve fitting of the standard 4 parameter logistic fitting algorithm included in the Activity Base software package: IDBS XE Designer Model205. Data are fitted using the Levenburg Marquardt algorithm.

Row | Structure (SMILES) | IC50 [µM]
1 | N#CN1CC[C@@H]2CCN(c3ncc(C4CCCCC4)s3)C(=O)[C@H]2C1 (single isomer, unassigned) [1-12R,R] | 0.1 to 1
2 | N#CN1CC[C@H]2CCN(c3ncc(C4CCCCC4)s3)C(=O)[C@H]2C1 (single isomer, unassigned) [1-12S,R] | 1 to 10
3 | N#CN1CC[C@H]2CCN(c3ncc(C4CCCCC4)s3)C(=O)[C@@H]2C1 (single isomer, unassigned) [1-12S,S] | 1 to 10
4 | N#CN1CCN2CCN(c3ncc(N4CCCC[C@@H]4Cc4ccccc4)s3)C(=O)[C@H]2C1 (single isomer, unassigned) [1-118R,R] | 0.1 to 1
5 | N#CN1CCN2CCN(c3ncc(N4CCCC[C@H]4Cc4ccccc4)s3)C(=O)[C@H]2C1 (single isomer, unassigned) [1-118R,S] | < 0.1
6 | N#CN1CCN2CCN(c3ncc(N4CCCC[C@@H]4Cc4ccccc4)s3)C(=O)[C@@H]2C1 (single isomer, unassigned) [1-118S,R] | 0.1 to 1
7 | N#CN1CCN2CCN(c3ncc(N4CCCC[C@H]4Cc4ccccc4)s3)C(=O)[C@@H]2C1 (single isomer, unassigned) [1-118S,S] | 0.1 to 1
8 | N#CN1CC[C@@H]2CCN(c3ncc(C4CCCCC4)s3)C[C@@H]2C1 (single isomer, unassigned) [4-1R,S] | 1 to 10
9 | N#CN1CC[C@H]2CCN(c3ncc(C4CCCCC4)s3)C[C@H]2C1 (single isomer, unassigned) [4-1S,R] | 1 to 10
10 | N#CN1CC[C@H]2CN(c3ncc(C4CCCCC4)s3)C(=O)[C@H]2C1 (single isomer, unassigned) [5-1R,R] | 10 to 25
11 | N#CN1CC[C@@H]2CN(c3ncc(C4CCCCC4)s3)C(=O)[C@@H]2C1 (single isomer, unassigned) [5-1S,S] | 1 to 10
12 | N#Cc1cccc(-c2cnc(N3C[C@H]4CN(C#N)CC[C@H]4C3)nc2)c1 (single isomer, unassigned) [5-2R,R] | > 25
13 | N#Cc1cccc(-c2cnc(N3C[C@H]4CCN(C#N)C[C@H]4C3)nc2)c1 (single isomer, unassigned) [5-2S,S] | 10 to 25
14 | N#CN1CCN2CCN(c3ncc(C4CCCCC4)s3)C(=O)[C@H]2C1 (single isomer, unassigned) [Compound 1-1R] | < 0.1
15 | N#CN1CCN2CCN(c3ncc(C4CCCCC4)s3)C(=O)[C@@H]2C1 (single isomer, unassigned) [Compound 1-1S] | 0.1 to 1
16 | CC(C)(C)c1sc(N2CCN3CCN(C#N)C[C@@H]3C2=O)nc1Cl (single isomer, unassigned) [Compound 1-2R] | < 0.1
17 | CC(C)(C)c1sc(N2CCN3CCN(C#N)C[C@H]3C2=O)nc1Cl (single isomer, unassigned) [Compound 1-2S] | < 0.1
18 | N#CN1CCN2CCN(c3nc(Cl)c(C4CCCCC4)s3)C(=O)[C@H]2C1 (single isomer, unassigned) [Compound 1-3R] | < 0.1
19 | N#CN1CCN2CCN(c3nc(Cl)c(C4CCCCC4)s3)C(=O)[C@@H]2C1 (single isomer, unassigned) [Compound 1-3S] | < 0.1
20 | N#Cc1cccc(-c2cnc(N3CCN4CCN(C#N)C[C@@H]4C3=O)nc2)c1 (single isomer, unassigned) [Compound 1-4R] | 1 to 10
21 | N#Cc1cccc(-c2cnc(N3CCN4CCN(C#N)C[C@H]4C3=O)nc2)c1 (single isomer, unassigned) [Compound 1-4S] | 1 to 10
22 | N#CN1CCN2CCN(c3ncc(-c4cccc(Cl)c4)cn3)C(=O)[C@H]2C1 (single isomer, unassigned) [Compound 1-5R] | 1 to 10
23 | N#CN1CCN2CCN(c3ncc(-c4cccc(Cl)c4)cn3)C(=O)[C@@H]2C1 (single isomer, unassigned) [Compound 1-5S] | 1 to 10

Row | Structure (SMILES) | IC50 [µM]
24 | N#Cc1cccc(-c2cnc(N3CCN4CCN(C#N)C[C@@H]4C3=O)s2)c1 (single isomer, unassigned) [Compound 1-6R] | < 0.1
25 | N#Cc1cccc(-c2cnc(N3CCN4CCN(C#N)C[C@H]4C3=O)s2)c1 (single isomer, unassigned) [Compound 1-6S] | < 0.1
26 | N#CN1CCN2CCN(c3ncc(-c4cccc(Cl)c4)s3)C(=O)[C@H]2C1 (single isomer, unassigned) [Compound 1-7R] | < 0.1
27 | N#CN1CCN2CCN(c3ncc(-c4cccc(Cl)c4)s3)C(=O)[C@@H]2C1 (single isomer, unassigned) [Compound 1-7S] | < 0.1
28 | N#CN1CCN2CCN(c3cc(-c4cccc(Cl)c4)on3)C(=O)[C@H]2C1 (single isomer, unassigned) [Compound 1-11R] | > 25
29 | N#CN1CCN2CCN(c3cc(-c4cccc(Cl)c4)on3)C(=O)[C@@H]2C1 (single isomer, unassigned) [Compound 1-11S] | > 25
30 | N#CN1CCN2CCN(c3ncc(-c4ccccc4)s3)C(=O)[C@H]2C1 (single isomer, unassigned) [Compound 1-14R] | < 0.1
31 | N#CN1CCN2CCN(c3ncc(-c4ccccc4)s3)C(=O)[C@@H]2C1 (single isomer, unassigned) [Compound 1-14S] | 0.1 to 1
32 | CC(C)(C)c1cnc(N2CCN3CCN(C#N)C[C@]3(C)C2=O)s1 (single isomer, unassigned) [Compound 1-15R] | 1 to 10
33 | N#CN1CCN2CCN(c3cc(-c4ccccc4Oc4ccccc4)[nH]n3)C(=O)[C@H]2C1 (single isomer, unassigned) [Compound 1-114R] | 0.1 to 1
34 | N#CN1CCN2CCN(c3cc(-c4ccccc4Oc4ccccc4)[nH]n3)C(=O)[C@@H]2C1 (single isomer, unassigned) [Compound 1-114S] | 0.1 to 1
35 | N#CN1CCN2CCN(c3ncc(-c4cccc(CN5CCC5)c4)s3)C(=O)[C@H]2C1 (single isomer, unassigned) [Compound 1-115R] | 1 to 10
36 | N#CN1CCN2CCN(c3ncc(-c4cccc(CN5CCC5)c4)s3)C(=O)[C@@H]2C1 (single isomer, unassigned) [Compound 1-115S] | 1 to 10
37 | CC(C)(C)c1sc(N2CCN3CCN(C#N)C[C@@]3(F)C2=O)nc1Cl (single isomer, unassigned) [Compound 1-116R] | 1 to 10
38 | CC(C)(C)c1sc(N2CCN3CCN(C#N)C[C@]3(F)C2=O)nc1Cl (single isomer, unassigned) [Compound 1-116S] | 1 to 10
39 | C[C@]12CN(C#N)CCN1CCN(c1ncc(C3CCCCC3)s1)C2=O (single isomer, unassigned) [Compound 1-117R] | < 0.1
40 | C[C@@]12CN(C#N)CCN1CCN(c1ncc(C3CCCCC3)s1)C2=O (single isomer, unassigned) [Compound 1-117S] | 1 to 10
41 | N#CN1CC(=O)N2CCN(c3ncc(C4CCCCC4)s3)C[C@H]2C1 (single isomer, unassigned) [Compound 3-1R] | < 0.1
42 | N#CN1CC(=O)N2CCN(c3ncc(C4CCCCC4)s3)C[C@@H]2C1 (single isomer, unassigned) [Compound 3-1S] | 0.1 to 1
43 | CC(C)(C)c1sc(N2CC(=O)N3CCN(C#N)C[C@@H]3C2=O)nc1Cl (single isomer, unassigned) [Compound 6-1R] | < 0.1
44 | CC(C)(C)c1sc(N2CC(=O)N3CCN(C#N)C[C@H]3C2=O)nc1Cl (single isomer, unassigned) [Compound 6-1S] | < 0.1
45 | N#CN1CCN2CCN(c3ncc(-c4ccccc4Oc4ccccc4)s3)C(=O)C2C1 (stereo in doubt) [Compound 1-113R, (R)-9-oxo-8-(5-(2-phenoxyphenyl)thiazol-2-yl)octahydro-2H-pyrazino[1,2-a]pyrazine-2-carbonitrile] | < 0.1
46 | N#CN1CCN2CCN(c3ncc(-c4ccccc4Oc4ccccc4)s3)C(=O)C2C1 (stereo in doubt) [Compound 1-113S, (S)-9-oxo-8-(5-(2-phenoxyphenyl)thiazol-2-yl)octahydro-2H-pyrazino[1,2-a]pyrazine-2-carbonitrile] | < 0.1
